How the values were obtained:
[1] = system: rats with severe Sugen-hypoxia-induced pulmonary hypertension; assay: Right ventricular systolic pressure (RVSP) after inhaled aerosol in Sugen-hypoxia pulmonary hypertension rats; format: in vivo, Sprague Dawley rats
Protocol: Stock SNOAC was prepared by reacting an appropriate amount of sodium nitrite and NAC in water just before use. The pH was adjusted to 7.0 with alkaline solution and then transferred to an Aeroneb Nebulizer (Kent Scientific). Severe PH was induced in Sprague Dawley rats by subcutaneous injection of vascular endothelial growth factor receptor antagonist Sugen 5416 followed by exposure to hypoxia (10% O2) for 3 weeks and normoxia for 4 weeks. Right ventricular systolic pressure (RVSP) was measured invasively in a closed-chest, spontaneously breathing rat model as an indicator of pulmonary arterial pressure. Rats were anesthetized with 1.5% isoflurane in air with a flow rate of 2 L/min. A blood pressure catheter was inserted into the right ventricle through the jugular vein, and baseline RVSP was measured. After the pressure stabilized, the aerosolized drug was introduced into the isoflurane line for 5 minutes.

normotensive rats [2] = assay: Femoral mean arterial pressure after sublingual administration in normotensive rats; format: in vivo; settings: 0.2, 0.4 or 0.8 mg nitrite/kg with 10 mg NAC
Protocol: Normotensive rats were anesthetized with isoflurane. The femoral artery was catheterized with a Micro-Tip Catheter Transducer (AD Instruments, Houston, TX) for monitoring of blood pressure. Once the baseline blood pressure was stabilized, at approximately 30 minutes, rats were treated sublingually with 50 μL of SNOAC generated by reacting 0.2 mg, 0.4 mg, or 0.8 mg nitrite/kg body weight with a fixed concentration of 10 mg NAC (FIG. 5). Control rats were treated with nitrite or NAC alone. The mean arterial pressure (MAP) was continually monitored.

[3] = system: mice with L-NAME-induced systemic hypertension; assay: L-NAME-induced systemic hypertension in mice, drinking water; format: in vivo; settings: L-NAME-treated mice, NAC 0.5 g/L or nitrite 20 mg/L alone, 2 months
Protocol: L-NAME (N-nitro-L-arginine methyl ester) is an inhibitor of eNOS enzyme activity. Administering L-NAME in the drinking water of animals induces systemic hypertension by decreasing NO synthesis in blood vessels. In this study, mice were fed L-NAME alone (0.1 g/L) or L-NAME+NAC (0.5 g/L), L-NAME+nitrite (20 mg/L), or L-NAME+NAC with one of two nitrite doses (i.e., 10 mg/L or 20 mg/L) in drinking water for 2 months. Mean arterial blood pressure was measured by the tail-cuff method (Kent Scientific, Torrington, CT).
Acute doses of nitrite (0.1 to 1 mg/kg B. wt.) or NAC (10 to 50 mg/kg B. wt.) alone or in combination were administered sublingually or by oral gavage to anesthetized Wistar rats and blood collected at varying time points for measurement of total plasma SNOs by chemiluminescence method. BP was measured by femoral intra-arterial catheterization. Chronic studies were carried out in an L-NAME (eNOS inhibitor) induced hypertensive mouse model. Mice were randomized into five groups 1) control, 2) control L-NAME (0.1 g/L), 3) L-NAME+nitrite (20 mg/L), 4) L-NAME+nitrite (10 mg/L)+NAC (0.5 g/L), 5) L-NAME+nitrite (20 mg/L)+NAC 0.5 g/L) in drinking water for 2 months. Plasma S-nitrosothiols blood pressure (tail cuff method), arterial stiffness (Doppler method) were determined.

normotensive rats [4] = assay: Mean arterial pressure after oral gavage in normotensive rats; format: in vivo; settings: 0.5 mL
Protocol: The mean arterial pressure (MAP) was continually monitored.
The MAP in rats was measured as described for sublingual administration. After baseline blood pressure was measured, 0.5 mL of nitrite alone, NAC alone, or the nitrite−NAC mixture was administered by gavage.

eNOS^-/- mice = assay: Tail-cuff MAP in eNOS-/- hypertensive mice, drinking water; format: in vivo; settings: nitrite 50 mg/L, NAC 500 mg/L in drinking water for 2 months, versus eNOS-/- control
Protocol: 15-week-old wild-type (WT) and eNOS^-/- mice were divided into 5 groups. (1) WT control, (2) eNOS^-/- control, (3) eNOS^-/-+nitrite, (4) eNOS^-/-+NAC, and (5) eNOS^-/-+nitrite+NAC. NAC was dissolved in the drinking water, and pH was adjusted to 7.0 to prevent initial nitrite reaction with NAC. The mice were given pharmacological doses of nitrite (50 mg/L) and NAC (500 mg/L) individually or in combination for 2 months.

[5] = system: Spontaneously Hypertensive Rats (SHR); assay: Tail-cuff MAP in SHR and WKY rats, drinking water; format: in vivo; settings: NAC 1.2 g/L, nitrite 60 mg/L in drinking water, end of 3 months, versus SHR control
Protocol: SHR rats are a well-established model used to study essential hypertension. Normotensive Wistar Kyoto rats (WKY) were used as a control group. Rats were fed with NAC (1.2 g/L), nitrite (60 mg/L), or a combination of the two in drinking water for 3 months. Mean arterial blood pressure was measured by the tail-cuff method once each month.

[6] = Plasma and organ RSNOs after oral gavage of nitrite in neutral NAC; format: in vivo, rats; settings: single agent alone, nitrite 1.5 mg/kg, NAC 50 mg/kg
Protocol: […] BP was measured by femoral intra-arterial catheterization. Chronic studies were carried out in an L-NAME (eNOS inhibitor) induced hypertensive mouse model. Mice were randomized into five groups 1) control, 2) control L-NAME (0.1 g/L), 3) L-NAME+nitrite (20 mg/L), 4) L-NAME+nitrite (10 mg/L)+NAC (0.5 g/L), 5) L-NAME+nitrite (20 mg/L)+NAC 0.5 g/L) in drinking water for 2 months. Plasma S-nitrosothiols blood pressure (tail cuff method), arterial stiffness (Doppler method) were determined.

[7] = Total S-nitrosothiols in blood after sublingual nitrite and NAC in mice; format: in vivo; settings: 0.1 mg nitrite and 10 mg NAC
Protocol: FIG. 14 is a graphical representation of the transfer of the SNOAC that is generated in the sublingual space to blood circulation in mice. The concentration of total S-nitrosothiols at 1, 30 min., and 60 min. was determined after mice were sublingually administered 0.1 mg nitrite and 10 mg NAC in 50 μL of water, generating SNOAC.
In this study, the sublingual and buccal cavity medication route of SNOAC generation and administration for acute dosing was first examined. A dose of NAC and sodium nitrite with 25 μL of water was placed under the tongue of mice or rats. Specifically, a dose of 0.1 mg of nitrite and 10 mg of NAC was placed under the tongue of the subject, blood was collected varying time points, and total S-nitrosothiols (SNO) were measured by a chemiluminescence method. […] As shown in FIG. 14 for mice and FIG. 4 for rats, SNOAC is generated in the buccal cavity and absorbed into circulation.

[8] = Plasma S-nitrosothiols and nitrite after sublingual SNOAC in rats; format: in vivo
Protocol: Because the chemicals cannot be placed in the buccal cavity of experimental animals, SNOAC was prepared in a test tube just before use and then placed in the sublingual space. Normotensive rats were anesthetized and the femoral artery was cannulated to collect blood. Stock SNOAC at 30 μmoles/mL was prepared by reacting sodium nitrite with NAC at the molar ratio of 1:2 in water just before use. It is believed that all of the nitrite is converted to SNOAC under these conditions. After baseline blood samples were collected in heparinized tubes, approximately 50 μL of SNOAC solution (0.4 mg nitrite and 1.87 mg NAC/kg body weight) was placed under the tongue of anesthetized rats. Blood was collected at 10-minute intervals. The plasma was separated, and nitrite and total S-nitrosothiols in plasma were determined. […] There was no change in plasma nitrite levels.
In this study, the sublingual and buccal cavity medication route of SNOAC generation and administration for acute dosing was first examined. A dose of NAC and sodium nitrite with 25 μL of water was placed under the tongue of mice or rats. Specifically, a dose of 0.1 mg of nitrite and 10 mg of NAC was placed under the tongue of the subject, blood was collected varying time points, and total S-nitrosothiols (SNO) were measured by a chemiluminescence method. […]

[9] = system: angiotension-2—induced acute PH; assay: Angiotensin-2-induced acute pulmonary hypertension in control rats; format: in vivo; settings: inhalation
cardiac proteins = assay: SNO-RAC proteomics of rat heart tissue; format: in vivo, rats; settings: single oral gavage dose, hearts collected after 1 hour
Protocol: FIG. 12 is a graphical representation of proteomics analysis of rat heart tissue. A single dose of nitrite and NAC at neutral pH were administered by oral gavage to rats. Rats were sacrificed after 1 hour and the hearts were collected. Total RSNO sites were identified using the a SNO-RAC (resin assisted capture) protocol. Proteomics was performed using liquid chromatography-tandem mass spectrometry (LC-MS/MS) analysis.

[10] = RSNO decomposition in water monitored by spectra; format: physicochemical; settings: over 15 hours; from 15 mM sodium nitrite and 60 mM N-acetylcysteine in water
Protocol: FIG. 11 is a graphical representation of generation and decomposition of S-nitroso-N-acetylcysteine (RSNO). In the left panel, RSNO generation is show when 15 mM sodium nitrite is reacted with 60 mM N-acetylcysteine (RSH) in water. All nitrite is converted instantly to RSNO. In the right panel, RSNO decomposition is monitored by recording spectra at 1.5 hour intervals over 15 hours. Approximately 50% of the RSNO was decomposed over the 15 hours.
Nitrite is converted to […] by reacting with RSH in water. RSNOs have potent vasodilatory, anti-inflammatory, and antiplatelet activities. As shown by the comparison of generation of RSNO in FIG. 11, left panel, with degradation in FIG. 11, right panel, the instability of RSNO after preparation is a major hindrance to use them as NO donors to restore the NO bio-availability that decrease with aging and pathophysiological conditions of cardiovascular diseases. Therefore, RSNOs have proven easy to prepare, but not typically stable after preparation.

Row | Compound | RVSP course after cessation of inhalation ([1]; hypertensive rats) | mean arterial pressure (MAP) (normotensive rats [2]) | MAP [3] | MAP (normotensive rats [4]) | MAP (eNOS^-/- mice) | MAP [5] | effect on RVSP of inhaled precursor molecules alone ([1]; hypertensive rats) | also measured
1 | nitric oxide [NO gas] | rapidly bounced back to baseline after cessation |  |  |  |  |  |  | RVSP during inhalation of NO gas ([1]; hypertensive rats, 30 ppm inhaled for 5 minutes): rapid decrease in RVSP
2 | O=NO [nitrite, sodium nitrite] |  | no change | no significant change | neither nitrite nor NAC alone altered the blood pressure | no significant change | no effect | no effect | effect on PH at higher doses ([1]; even at higher doses): No effect
3 | CC(=O)N[C@@H](CS)C(=O)O [NAC, N-acetylcysteine] |  | no change | no significant change | neither nitrite nor NAC alone altered the blood pressure | no significant change | modestly decreased | no effect | increase in plasma RSNOs [6]: no change
4 | CC(=O)N[C@@H](CSN=O)C(=O)O [SNOAC, S-nitroso-N-acetylcysteine] | slowly increased over the following 40 minutes, while still remaining lower than the baseline value |  |  |  |  |  |  | total S-nitrosothiols (SNO) over time [7]: increased with increasing the time; plasma nitrite levels ([8]; after sublingual SNOAC): no change; total plasma S-nitrosothiols (SNO) over time ([8]; rats, sublingual): increased with increasing the time; angiotensin-2-induced acute PH [9]: significantly decreased; life span (SNOAC life span): about 30 min; S-nitrosylation of cardiac proteins (cardiac proteins): increased with increasing the dose of RSNO; RVSP change in control animals ([1]; control animals, baseline RVSP 30 mmHg): did not change significantly; RVSP after another dose of aerosolized drug after 40 minutes ([1]; hypertensive rats): sustained decrease in RVSP that was longer than after the initial dose; time the RVSP decrease was sustained at the same level after cessation of drug ([1]; hypertensive rats): 5 min; RVSP after inhalation of aerosolized drug ([1]; hypertensive rats, baseline RVSP 125 mmHg, inhalation for 5 minutes): 96 mmHg; RSNO decomposed [10]: Approximately 50%

— patent US20240382443A1, “GENERATION OF S-NITROSOACETYLCYSTEINE” (The UAB Research Foundation, priority 2023, published 2024)
